Legend:
Format in all cases: biochemical
[1] = target: T1, bovine LPA phosphatase (Bos taurus, UniProt A6H757); test: Substrate specificity, free phosphate quantified by molybdate/ascorbic acid absorbance at 795 nm; conditions: 37° C., 15 minutes, pH 7.5
T1 construct: from tissue; host or cells: bovine brain, cytosol fraction
T1 sequence (A6H757 33-429): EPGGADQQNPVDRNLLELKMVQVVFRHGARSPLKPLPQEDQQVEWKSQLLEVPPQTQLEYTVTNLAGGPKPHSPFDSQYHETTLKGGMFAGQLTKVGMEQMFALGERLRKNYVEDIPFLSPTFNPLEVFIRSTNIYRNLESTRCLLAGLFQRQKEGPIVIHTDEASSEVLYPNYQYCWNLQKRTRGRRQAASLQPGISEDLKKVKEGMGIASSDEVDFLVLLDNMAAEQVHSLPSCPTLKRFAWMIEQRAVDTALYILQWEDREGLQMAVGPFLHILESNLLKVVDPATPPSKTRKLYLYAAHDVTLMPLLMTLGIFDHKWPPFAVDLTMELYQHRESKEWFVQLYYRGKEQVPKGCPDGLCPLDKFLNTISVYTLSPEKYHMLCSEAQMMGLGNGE
Method: The activity for the LPA Phosphatase was determined in 50 μl of a reaction mixture [50 mM Tris-maleic acid (pH 7.5), 50 μM monooleoyl-[9,10-^3H]-lysophosphatidic acid (5×10^4 dpm), Triton™-X100 at 4-fold molar concentration of the substrate and enzymes at various concentrations]. The above mixture was incubated at 37° C. for 15 minutes, and the enzyme activity was determined by measuring the generated [^3H]monooleoylglycerol.
Each of the enzyme reaction solutions containing various substrates was reacted in the same manner as in Test Example 1, and 25 μl of perchloric acid was added to terminate the reaction. Seventy-five microliters of […], 25 μl of 10% ammonium molybdate and 50 μl of 10% ascorbic acid were further added thereto. The mixed solution was boiled at 95° C. for 5 minutes, and thereafter the absorbance at 795 nm was determined to quantify free phosphate.

[2] = target: T2, Recombinant LPA Phosphatase (Homo sapiens, UniProt Q9NPH0); test: Determination reagent (Reagent a / Reagent b), coupled enzymatic phosphate assay, absorbance at 570 nm; conditions: 5 minutes after Reagent b; for whether assayed by the determination reagent (change in absorbance at 570 nm): 0.2 mmol/l sample, 37° C.
T2 construct: comprises a signal peptide consisting of 40 amino acid residues at N-terminal, and was a novel phosphatase having 421 amino acid residues; 6xHis; made in house; host or cells: E. coli JM109, vector pQE-30
T2 sequence (Q9NPH0 48-428 limits assumed): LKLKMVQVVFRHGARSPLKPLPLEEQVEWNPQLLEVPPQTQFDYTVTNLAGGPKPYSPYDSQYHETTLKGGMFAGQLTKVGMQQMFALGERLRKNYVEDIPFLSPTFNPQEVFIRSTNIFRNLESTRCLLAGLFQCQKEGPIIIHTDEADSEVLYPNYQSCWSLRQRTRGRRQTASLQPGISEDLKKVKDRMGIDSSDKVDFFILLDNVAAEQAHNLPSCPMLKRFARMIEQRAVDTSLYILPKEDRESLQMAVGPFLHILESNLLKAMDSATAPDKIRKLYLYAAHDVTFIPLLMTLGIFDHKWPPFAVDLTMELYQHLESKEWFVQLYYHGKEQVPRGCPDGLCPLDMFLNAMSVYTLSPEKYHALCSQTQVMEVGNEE
Method: The following determination reagents (Reagent a, Reagent b) were prepared.
Each of the various LPAs such as 1-palmitoyl-LPA, 1-stearoyl-LPA, 1-oleoyl-LPA, 2-oleoyl-LPA, 1-linoleoyl-LPA and 1-arachidonoyl-LPA was dissolved in physiological saline containing a surfactant, to prepare a 0.2 mmol/l sample. Two-hundred and forty microliters of Reagent a was added to 8 μl of the sample, and the mixture was reacted at 37° C. for 5 minutes. Thereafter, 80 μl of Reagent b was added thereto, and the mixture was further reacted at 37° C. for 5 minutes. The change in the absorbance at a wavelength of 570 nm for 5 minutes after adding Reagent b was determined using reagent blank as a control.
The absorbance dramatically increases after addition of reagent b, reaching a peak in several minutes. In addition, each of various phospholipids such as 1,2-dipalmitoylphosphatidic acid (1,2-dipalmitoyl-PA), 1-palmitoylphosphatidylethanolamine (1-palmitoyl-LPE), and 1-palmitoylphosphatidylcholine (1-palmitoyl-LPC) was dissolved in physiological saline containing a surfactant, to prepare a 0.2 mmol/l sample. The absorbance was determined by the same procedures.
Further, the change in the absorbance was determined by the same procedures for each of commercially available control sera, 0.2 mM 1-oleoyl-LPA, and one prepared by adding 1-oleoyl-LPA to the commercially available control serum so as to be 0.2 mM. The determination accuracy (%) of LPA was calculated from each of the obtained changes in the absorbance by the following equation: […]

[3] = target: T1, bovine LPA phosphatase; test: Hydrolysis of [3H]1-oleoyl-LPA evaluated by TLC; conditions: 5 nmol substrate, enzyme 0-150 ng
Method: The experiment for the specific activity and the reaction rate, and the like is performed by using the following separation method. Concretely, the above enzyme reaction product (50 μl of a mixture) was lyophilized, and monooleoylglycerol was added as a carrier. Thereafter, the mixture was analyzed by thin-layer chromatography (TLC) using a solvent system of n-butanol/acetic acid/water (30.4/4.8/4.8). The TLC plate was exposed to iodine steam, and spots of the monooleoylglycerol were scraped off, and the radioactivity was determined.
Next, in order to confirm the reactivity with 1-oleoyl-LPA in detail, the enzyme reaction was carried out in the same manner as in Test Example 2 using [^3H]1-oleoyl-LPA (5 nmol, 1×10^5 dpm) as a substrate, and evaluated by TLC (FIG. 6).

[4] = target: T1, bovine LPA phosphatase; test: Reactivity with [32P]LPA or [32P]PA, radioactivity of the aqueous layer; conditions: enzyme 0-175 ng, substrate 0-100 μM
Source text: FIG. 7 is a graph for evaluating the reactivity of bovine LPA phosphatase with [^32P]LPA or [^32P] PA, each being previously purified with TLC.
In order to further confirm in detail the reactivity when 1-oleoyl-LPA and dioleoyl-PA were used as substrates, [^32P]LPA and [^32P]PA were used as substrates, which had been labeled by using [γ-^32P]ATP and E. coli DG kinase [Waggoner, D. W. et al., (1996) J. Biol. Chem. 271, 16506–16509], and purified with TLC previously. Each of the reactions was carried out by varying the enzyme amount (0–175 ng), or varying the concentration of the substrate (0–100 μM). The enzyme reaction was terminated with 100 μl of 0.1 N hydrochloric acid in methanol solution, and 200 μl of chloroform and 1 M magnesium chloride were each added. The mixture was vigorously mixed, and thereafter centrifuged at 1,000×g for 5 minutes. The radioactivity of 175 μl of the aqueous layer was determined to evaluate the enzyme reaction (FIG. 7).

Row | Compound | hydrolysis by bovine LPA phosphatase (free phosphate) [1] | also measured
1 | CCCCCCCC/C=C\CCCCCCCC(=O)OC[C@@H](O)COP(=O)(O)O [1-oleoyl-LPA, 1-oleoyl-lysophosphatidic acid] | strongly hydrolyzed | Changes in Absorbance ([2]; 0.2 mmol/l, 570 nm): 0.0988
2 | CCCCCCCCCCCCCCCC(=O)OC[C@@H](O)COP(=O)([O-])OCC[N+](C)(C)C [LPC, 1-palmitoylphosphatidylcholine] |  | whether assayed by the determination reagent (change in absorbance at 570 nm) [2]: cannot substantially be done
3 | CCCCCCCCCCCCCCCC(=O)OC[C@H](COP(=O)(O)O)OC(=O)CCCCCCCCCCCCCCC [PA, 1,2-dipalmitoylphosphatidic acid] |  | whether assayed by the determination reagent (change in absorbance at 570 nm) [2]: cannot substantially be done
4 | [3H]/C(CCCCCCCC)=C(\[3H])CCCCCCCC(=O)OC[C@@H](O)COP(=O)(O)O [[^3H]1-oleoyl-LPA, monooleoyl-[9,10-^3H]-lysophosphatidic acid] |  | hydrolysis to [3H]1-oleoylglycerol (TLC) [3]: hydrolyzed
5 | O=P(O)(O)OCC(O)CO (stereo not drawn) [glycerol phosphate] | did not hydrolyze | 
6 | CCCCCCCCCCCCC/C=C/[C@@H](O)[C@@H](N)COP(=O)(O)O [sphingosine 1-phosphate] | did not hydrolyze | 
7 | Lysophosphatidic acid [LPA] |  | reactivity of bovine LPA phosphatase with 32P-labelled substrate [4]: extremely high reactivity
8 | bisphosphatidic acid | did not hydrolyze | 
9 | cardiolipin | did not hydrolyze | 
10 | ceramide 1-phosphate | did not hydrolyze | 
11 | phosphatidic acid | did not hydrolyze | 
